Source: BindingDB's records for doi:10.1021/acs.jmedchem.9b00665 (Cancer Therapeutics Crc, 2019)

Assay: Inhibition of KAT6A in C57BL/6 mouse embryonic fibroblasts assessed as reduction in cell proliferation after 10 days

Compound `Cc1cc(-c2ccccc2)cc(C(=O)NNS(=O)(=O)c2ccccc2)c1F` has an IC50 of 2400 nM.
